This is an account of results in patent US20130252930A1 (BIOMARIN PHARMACEUTICAL INC., priority 2010, published 2013).

pIC50: −log10 of the molar value. Read-outs that look alike come from different tables or passages of the source. Where only a bound is given, the exact number is not on record here.

Series [1] has as its target T1, CYP17 (H295R cells) (Homo sapiens, UniProt P05093).
T1 construct: endogenous in cells; host or cells: H295R cells
T1 sequence (P05093 1-508): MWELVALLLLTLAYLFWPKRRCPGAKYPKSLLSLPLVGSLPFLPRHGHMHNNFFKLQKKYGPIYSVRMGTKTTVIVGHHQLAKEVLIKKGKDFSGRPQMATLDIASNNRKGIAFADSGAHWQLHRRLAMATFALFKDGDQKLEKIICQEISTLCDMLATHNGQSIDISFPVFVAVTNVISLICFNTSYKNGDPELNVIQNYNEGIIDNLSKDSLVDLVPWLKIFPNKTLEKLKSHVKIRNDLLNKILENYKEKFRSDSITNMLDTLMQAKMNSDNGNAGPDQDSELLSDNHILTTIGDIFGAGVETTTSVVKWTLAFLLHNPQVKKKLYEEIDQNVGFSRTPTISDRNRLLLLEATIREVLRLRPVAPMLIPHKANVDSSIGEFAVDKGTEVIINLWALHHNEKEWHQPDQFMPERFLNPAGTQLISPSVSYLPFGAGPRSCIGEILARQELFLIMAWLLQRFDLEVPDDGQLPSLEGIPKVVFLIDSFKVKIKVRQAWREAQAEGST
In words: CYP17 cellular assay (IC50), testosterone in H295R cells (Biological Example 7). The format is cell-based. As to conditions: H295R cells. On the procedure: The assays were performed in 96-well plates. Typically H295R cells were seeded at 4.5×10^4 cells/well in 100 μL Growth Medium containing DMEM/F-12 (Gibco/Invitrogen; 11330-032), 2.5% Nu-Serum (BD Bioscience; 355100) and ITS (BD Bioscience; 354352), and cultured at 37° C., 5% CO2 for 24 hr. The next day, media were carefully removed and cells were washed twice with 200 μL 1×HBSS++. Test compounds were then added to the cells at 100, 10, 1, 0.1 nM final concentrations in 125 μL volume per well in serum-free media containing DMEM/F-12 and ITS+ Premix (BD Bioscience; 354352) with 0.1% methanol. Serum-free media with 0.1% methanol without test compound was used as control. Cells were incubated with compounds at 37° C. for additional 24 hours, and the cultured media from each compound treated well was harvested for measurement of testosterone concentration by ELISA according to manufacturer's instruction (Assay Design). Testosterone concentration of each sample was plotted vs. the concentration of the test compounds.

Series [2] deals with T2, CYP17 (human testicular microsome) (Homo sapiens, UniProt P05093).
T2 construct: using microsomal fraction from human testis (Celsis Cat #S00110) as the enzyme source; tissue Celsis S00110; host or cells: human testis microsomal fraction
T2 sequence (P05093 1-508): T1 sequence (P05093 1-508)
Put plainly: CYP17 enzymatic assay (IC50) (Biological Example 4). Format: biochemical. Particulars: human testicular microsome.

The target in series [3] is T2, CYP17 (human testicular microsome). Put plainly: CYP17 enzymatic assay (% inhibition at 1 nM) (Biological Example 12). Format: biochemical. Particulars: compound at 1 nM.
Series [4] in a line: Human liver microsome stability assay (Biological Example 8b). Particulars: liver microsomes, pH 7.4. Background: Liver microsomes are a subcellular fraction often used to study metabolism.
Description: The reaction was started with addition of excess NADPH (5 mg/mL, 15 μL in 0.1 M potassium phosphate buffer, 1.0 mM EDTA, pH 7.4), the total volume is 45 μL (compound final concentration was 1 μM). […] 50 μL of the supernatant was transferred from each well into a 96-well sample plate containing 50 μL of ultra-pure water (Millipore) for LC-MS/MS analysis.
Series [5] has as its target T2, CYP17 (human testicular microsome). In words: CYP17 enzymatic assay (% inhibition at 10 nM), version 1 (Biological Example 5). The format is biochemical. As to conditions: 10 nM compound, DHEA by ELISA, read-out: Biological Example No. 5: CYP17 percent inhibition at 10 nM (version 1). For orientation: In an ELISA, binding on a coated surface is turned into a signal by an enzyme label.

[6] abbreviates: testosterone, read-out: Biological Example No. 7: CYP17 cellular assay IC50.
[7] abbreviates: read-out: Biological Example No. 4: CYP17 enzymatic assay IC50.
Setting [8] is: read-out: Biological Example No. 12: CYP17 enzymatic assay % inhibition at 1 nM.
[9] abbreviates: testosterone, read-out: CYP17 cellular assay IC50 (Biological Example No. 7).
The mark [10] stands for this setting: read-out: CYP17 enzymatic assay % inhibition at 1 nM (Biological Example No. 12).
Where [11] appears, read: testosterone by ELISA, 24 hours, read-out: Biological Example No. 7: CYP17 cellular assay IC50.
The mark [12] stands for this setting: DHEA by ELISA, read-out: Biological Example No. 4: CYP17 enzymatic assay IC50.
The mark [13] stands for this setting: read-out: CYP17 enzymatic assay IC50 (Biological Example No. 4).

A word on the pIC50: it is −log10 of the IC50, conventionally taken in molar units. Usually inhibition stands for how much of the control response was suppressed. Broadly, the half-life is the time needed for the level to fall by half in the phase considered.

For `C[C@]12CC[C@H]3[C@@H](CC4CC45C[C@@H](O)CC[C@]35C)[C@@H]1CC=C2c1cccnc1` (single isomer, unassigned) [Compound 317], the pIC50 in series [1] (setting [6]) is over 7.82; in series [2] (setting [7]), over 7.96. Besides, the inhibition at 0.001 µM in series [3] (setting [8]) is over 50%. In series [4], this molecule displayed a half-life at 1 μM of 1 to 50 min.

For the molecule `CC(=O)N[C@@H]1CC[C@@]2(C)C(CCC3C2CC[C@]2(C)C(c4cnccc4C)=CCC32)C1` (stereo partly drawn) [Compound 21, N-((3R,10S,13S)-10,13-dimethyl-17-(4-methylpyridin-3-yl)-2,3,4,5,6,7,8,9,10,11,12,13,14,15-tetradecahydro-1H-cyclopenta[a]phenanthren-3-yl)acetamide], the pIC50 in series [1] (setting [9]) is over 7.82. Further, in series [3] (setting [10]), the inhibition at 0.001 µM is over 50%. The molecule also had a half-life at 1 μM in series [4] of 1 to 50 min.

In the case of `C[C@]12CCCC(=O)C1CC[C@@H]1[C@@H]2CC[C@]2(C)C(c3cccnc3)=CC[C@@H]12` (stereo partly drawn) [Compound 89, (10R,13S)-10,13-dimethyl-17-(pyridin-3-yl)-2,3,5,6,7,8,9,11,12,13,14,15-dodecahydro-1H-cyclopenta[a]phenanthren-4(10H)-one], the pIC50 is over 7.82 in series [1] (setting [11]) and over 7.96 in series [2] (setting [12]). Also, the inhibition at 0.01 µM in series [5] was over 80%.

Turning to `CC(=O)O[C@H]1CC[C@@]2(C)[C@@H](CC[C@@H]3[C@@H]2CC[C@]2(C)C(n4ccnn4)=CC[C@@H]32)C1` [Compound 130, (3S,5S,8R,9S,10S,13S,14S)-10,13-dimethyl-17-(1H-1,2,3-triazol-1-yl)-2,3,4,5,6,7,8,9,10,11,12,13,14,15-tetradecahydro-1H-cyclopenta[a]phenanthren-3-yl acetate], the negative logarithm of the IC50 (pIC50) is over 7.82 in series [1] (setting [11]) and over 7.96 in series [2] (setting [12]). In addition, the inhibition at 0.01 µM in series [5] is over 80%.

Regarding `Cc1ccncc1C1=CC=C2[C@@H]3CC=C4C[C@@H](O)CC[C@]4(C)[C@H]3CC[C@]12C` [Compound 190, (3S,10R,13S)-10,13-dimethyl-17-(4-methylpyridin-3-yl)-2,3,4,7,8,9,10,11,12,13-decahydro-1H-cyclopenta[a]phenanthren-3-ol], the pIC50 in series [1] (setting [9]) is 7.00 to 7.82. Moreover, the inhibition at 0.001 µM in series [3] (setting [10]) is over 50%. Besides, in series [4], the half-life at 1 μM is 1 to 50 min.

In the case of `CC(C)C(=O)N[C@@H]1CC[C@@]2(C)C(CCC3C2CC[C@]2(C)C(c4cccnc4)=CCC32)C1` (stereo partly drawn) [Compound 216, N-((3R,10S,13S)-10,13-dimethyl-17-(pyridin-3-yl)-2,3,4,5,6,7,8,9,10,11,12,13,14,15-tetradecahydro-1H-cyclopenta[a]phenanthren-3-yl)isobutyramide], the pIC50 in series [1] (setting [9]) is over 7.82. Further, in series [3] (setting [10]), the inhibition at 0.001 µM is over 50%. In series [4], the half-life at 1 μM lay within 1 to 50 min.

In the case of `CC(=O)N[C@@H]1CC[C@@]2(C)C(=CCC3C2CC[C@]2(C)C(c4cccnc4)=CCC32)C1` (stereo partly drawn) [Compound 223, N-((3R,10R,13S)-10,13-dimethyl-17-(pyridin-3-yl)-2,3,4,7,8,9,10,11,12,13,14,15-dodecahydro-1H-cyclopenta[a]phenanthren-3-yl)acetamide], the values for the pIC50 in series [1] (setting [9]) and in series [2] (setting [13]) were over 7.82 and over 7.96, respectively. Further, the inhibition at 0.001 µM in series [3] (setting [10]) was over 50%. Also, the half-life at 1 μM in series [4] was 1 to 50 min.

On to `CC(=O)N[C@@H]1CC[C@@]2(C)C(=CCC3C4=CC=C(c5cccnc5)[C@@]4(C)CCC32)C1` (stereo partly drawn) [Compound 243, N-((3R,10R,13S)-10,13-dimethyl-17-(pyridin-3-yl)-2,3,4,7,8,9,10,11,12,13-decahydro-1H-cyclopenta[a]phenanthren-3-yl)acetamide], for which the pIC50 in series [1] (setting [9]) is over 7.82. Besides, in series [3] (setting [10]), the inhibition at 0.001 µM is over 50%. The molecule further came in with a half-life at 1 μM in series [4] of 1 to 50 min.

`C[C@]1(O)CC[C@@]2(C)C(CCC3C2CC[C@]2(C)C(c4cncc(F)c4)=CCC32)C1` (stereo partly drawn) [Compound 264, (3S,10S,13S)-17-(5-fluoropyridin-3-yl)-3,10,13-trimethyl-2,3,4,5,6,7,8,9,10,11,12,13,14,15-tetradecahydro-1H-cyclopenta[a]phenanthren-3-ol]: the pIC50 was over 7.82 in series [1] (setting [6]) and over 7.96 in series [2] (setting [7]). Also, the half-life at 1 μM in series [4] lay within 1 to 50 min.

Consider `C[C@]12CC[C@H]3[C@@H](CC=C4C[C@@H](O)CC[C@@]43C)C1=CC=C2c1cncc(F)c1` [Compound 271, (3S,10R,13S)-17-(5-fluoropyridin-3-yl)-10,13-dimethyl-2,3,4,7,8,9,10,11,12,13-decahydro-1H-cyclopenta[a]phenanthren-3-ol], for which the pIC50 in series [1] (setting [6]) is over 7.82; in series [2] (setting [7]), over 7.96. Moreover, the inhibition at 0.001 µM in series [3] (setting [8]) was over 50%. The molecule further returned a half-life at 1 μM in series [4] of 1 to 50 min.

For the molecule `C[C@]12CC[C@H]3[C@@H](CC=C4C[C@@H](O)CC[C@@]43C)C1=CC=C2c1cncc(C(F)F)c1` [Compound 272, (3S,10R,13S)-17-(5-(difluoromethyl)pyridin-3-yl)-10,13-dimethyl-2,3,4,7,8,9,10,11,12,13-decahydro-1H-cyclopenta[a]phenanthren-3-ol], in series [1] (setting [6]), the negative logarithm of the IC50 (pIC50) was 7.00 to 7.82. In addition, the inhibition at 0.001 µM in series [3] (setting [8]) is under 10%.

For `C[C@]12CC[C@H](O)CC1=CCC1C2CC[C@]2(C)C(c3cncc(C(F)F)c3)=CCC12` (stereo partly drawn) [Compound 279, (3S,10R,13S)-17-(5-(difluoromethyl)pyridin-3-yl)-10,13-dimethyl-2,3,4,7,8,9,10,11,12,13,14,15-dodecahydro-1H-cyclopenta[a]phenanthren-3-ol], the pIC50 was over 7.82 in series [1] (setting [6]) and over 7.96 in series [2] (setting [7]). For the same molecule, the inhibition at 0.001 µM in series [3] (setting [8]) is over 50%. In series [4], this molecule displayed a half-life at 1 μM of over 50 min.

As for `CC1C(O)CC[C@@]2(C)C1CC[C@@H]1[C@@H]2CC[C@]2(C)C(c3cccnc3)=CC[C@@H]12` (stereo partly drawn) [Compound 304, (10R,13S)-4,10,13-trimethyl-17-(pyridin-3-yl)-2,3,4,5,6,7,8,9,10,11,12,13,14,15-tetradecahydro-1H-cyclopenta[a]phenanthren-3-ol], the results for the negative-log IC50 (pIC50) in series [1] (setting [6]) and in series [2] (setting [7]) were over 7.82 and over 7.96, respectively. The inhibition at 0.001 µM in series [3] (setting [8]) was 10 to 50%.

`C[C@]12CC[C@H]3[C@@H](CCC45CC4C(O)CC[C@]35C)[C@@H]1CC=C2c1cccnc1` (stereo partly drawn) [Compound 314, (4aR,6aS)-4a,6a-dimethyl-7-(pyridin-3-yl)-1a,2,3,4,4a,4b,5,6,6a,9,9a,9b,10,11-tetradecahydro-1H-cyclopenta[a]cyclopropa[j]phenanthren-2-ol]: the results for the pIC50 in series [1] (setting [9]) and in series [2] (setting [13]) were over 7.82 and over 7.96, respectively. Moreover, in series [3] (setting [10]), the inhibition at 0.001 µM was over 50%.

Consider `C[C@]12CCC3C(CC(F)C4(O)C[C@@H](O)CC[C@]34C)C1CC=C2c1cncc(F)c1` (stereo partly drawn) [Compound 321, (3S,10R,13S)-6-fluoro-17-(5-fluoropyridin-3-yl)-10,13-dimethyl-2,3,4,5,6,7,8,9,10,11,12,13,14,15-tetradecahydro-1H-cyclopenta[a]phenanthrene-3,5-diol], for which the figures for the negative logarithm of the IC50 (pIC50) in series [1] (setting [6]) and in series [2] (setting [7]) were over 7.82 and over 7.96, respectively. For the same molecule, the inhibition at 0.001 µM in series [3] (setting [8]) is over 50%. In series [4], this molecule had a half-life at 1 μM of 1 to 50 min.

Turning to `C[C@]12CCC(F)CC1=CC[C@@H]1[C@@H]2CC[C@]2(C)C(c3cncc(F)c3)=CC[C@@H]12` (stereo partly drawn) [Compound 401, 3-fluoro-5-((10R,13S)-3-fluoro-10,13-dimethyl-2,3,4,7,8,9,10,11,12,13,14,15-dodecahydro-1H-cyclopenta[a]phenanthren-17-yl)pyridine], the negative-log IC50 (pIC50) in series [1] (setting [6]) is over 7.82; in series [2] (setting [7]) it was over 7.96. This molecule also showed a half-life at 1 μM in series [4] of over 50 min.
